Here are results for three compounds from patent US20020123480A1, “Methods and compositions utilizing 2'-5' oligoadenylates in the treatment of disorders of cell proliferation” (priority 2000, published 2002).

≈ marks a conversion by molar mass, not a printed value. Where two headings read alike, the source gives them in different places.

Experiment [1] concerns SiHa (HPV-16-positive). In words: Growth of HPV-positive SiHa cells, Coulter Counter cell count. The class given is cell-based, human. The settings on record: for IC50: Homo sapiens.
Experiment [2] has as its system Daudi cells, an Epstein-Barr Virus (EBV)-positive Burkitt's lymphoma tumor cell line. In words: Growth of Daudi cells, neutral red uptake assay. The format is cell-based, human. As for the experimental part: (§1) The cells used in the first study included CK-1 (HPV-33-positive), EiL8 (HPV-16-positive), SiHa (HPV-16-positive) and HeLa (HPV-18-positive) and control primary human cervical keratinocytes (PHK). The cells were cultured in growth medium at 37° C., in 5% CO2. For these experiments, the cells were seeded in 96-well microtiter plates and after 24 hours of growth, serial dilutions of the test compounds were added. The cells were not fed after addition of the compounds. After three, five, seven and ten days, the cells were harvested by trypsinization and counted with a Coulter Counter. Duplicate wells were analyzed for each dilution and the results averaged. The number of cells recovered at each dilution was compared to the number of cells in untreated control wells and the concentration of test compound required to reduce cell growth by 50 percent (IC50) was determined.
(§2) The human foreskin fibroblast (HFF) cells were cultured in growth medium as described above, but assayed by neutral red uptake and counting of cells. The human embryonic lung fibroblast (HEL) cells were cultured in growth medium and assayed as described above by counting with a Coulter Counter. Daudi cells, an Epstein-Barr Virus (EBV)-positive Burkitt's lymphoma tumor cell line, were cultured in growth medium as described above and assayed by the neutral red uptake assay. […]

In experiment [3] the test system is HeLa (HPV-18-positive). In words: Growth of HPV-positive HeLa cells, Coulter Counter cell count. The class given is cell-based, human. The note with it: for IC50: Homo sapiens.
Experiment [4] has as its system CK-1 (HPV-33-positive). Kind of experiment: cells. The format is cell-based. The settings on record: for IC50: Homo sapiens, read-out: IC50 (concentration required to reduce cell growth by 50%).
The test system of experiment [5] is EiL8 (HPV-16-positive). In words: Growth of HPV-positive EiL8 cells, Coulter Counter cell count. The class given is cell-based, human. The note with it: for IC50: Homo sapiens, read-out: IC50 (concentration required to reduce cell growth by 50%). The method, then:
as §1

Experiment [6] relates to human foreskin fibroblast (HFF) cells. Kind of experiment: Growth of human foreskin fibroblasts, neutral red uptake and counting of cells. The format is cell-based. The method, then:
as §1, §2

Experiment [7] deals with human papillomavirus (HPV)-positive cell lines. In words: Growth of human papillomavirus (HPV)-positive cell lines in presence of test compounds. The format is cell-based. As for the experimental part:
See […] et at., Oncol Res. 10, 523-31 (1998) and J. A. Johnson et al., Antimicrob. Agents Chemother. 43, 1198-205 (1999). […] For these experiments, the cells were seeded in 96-well microtiter plates and after 24 hours of growth, serial dilutions of the test compounds were added. The cells were not fed after addition of the compounds. After three, five, seven and ten days, the cells were harvested by trypsinization and counted with a Coulter Counter. Duplicate wells were analyzed for each dilution and the results averaged.

For experiment [8], the system named is primary human cervical keratinocytes (PHK). In words: Growth of control primary human cervical keratinocytes, Coulter Counter cell count. The format is cell-based. The note with it: for IC50: Homo sapiens, Keratinocyte.
The subject of experiment [9] is human papillomavirus (HPV)-positive cell lines. The settings on record: literature (Andrei 1998; Johnson 1999); cited from earlier work.
Where [10] appears, read: 72 h, Day 3, read-out: IC50 (concentration required to reduce cell growth by 50%).
The mark [11] stands for this setting: 120 h, Day 5, read-out: IC50 (concentration required to reduce cell growth by 50%).
The mark [12] stands for this setting: 168 h, Day 7, read-out: IC50 (concentration required to reduce cell growth by 50%).
Setting [13] is: 240 h, Day 10, read-out: IC50 (concentration required to reduce cell growth by 50%).

With “2′,3′-cyclophosphateadenylyl(2′,5′)adenylyl-(2′,5′)adenosine [Cmpd. I]”, the “IC50 (concentration required to reduce cell growth by 50%)” value in [1] (Day 3) was found to be 150 µg/mL; in experiment [1] (Day 5), 108 µg/mL; in experiment [1] (Day 7) it was 141 µg/mL; in [1] (Day 10), 193 µg/mL; in experiment [3] (Day 3), 66 µg/mL; in [3] (Day 5) it was 62 µg/mL. Also, the “IC50 (concentration required to reduce cell growth by 50%)” value is 90 µg/mL in experiment [3] (Day 7); 160 µg/mL in [3] (Day 10); 100 µg/mL in experiment [4] (CK-1, Day 3); 46 µg/mL in [4] (CK-1, Day 5); 104 µg/mL in experiment [4] (CK-1, Day 7); 303 µg/mL in experiment [4] (CK-1, Day 10). Further, the “IC50 (concentration required to reduce cell growth by 50%)” value was 63 µg/mL in [5] (EiL8, Day 3); 68 µg/mL in [5] (EiL8, Day 5); 103 µg/mL in experiment [5] (EiL8, Day 7); 180 µg/mL in experiment [5] (EiL8, Day 10); 110 µg/mL in experiment [8] (Day 3); 168 µg/mL in [8] (Day 5). The results for the “IC50 (concentration required to reduce cell growth by 50%)” value in experiment [8] (Day 7) and in [8] (Day 10) were 262 µg/mL and 280 µg/mL, respectively. The “inhibition of growth (in words)” value in [2] and in experiment [6] was “inhibit the growth” throughout. Moreover, the “growth inhibition / anti-proliferative activity (in words)” value in experiment [7] is given as “anti-proliferative activity”.

Consider `Nc1nc2c(ncn2COCCO)c(=O)[nH]1` [acyclovir, reference compound], for which the “growth inhibition / anti-proliferative activity (in words)” value in [7] is “With the exception of acyclovir, growth inhibition was observed”.

Consider `Nc1ccn(C[C@@H](CO)OCP(=O)(O)O)c(=O)n1` [HPMPC, 3-hydroxy-2-phosphonylmethoxy-propyl cytosine, reference compound], for which the IC50 in [1] (setting [10]) was 179 µg/mL (≈ 641 µM); in [1] (setting [11]), 8.6 µg/mL (≈ 30.8 µM); in [1] (setting [12]), 4.7 µg/mL (≈ 16.8 µM); in [1] (setting [13]), 4 µg/mL (≈ 14.3 µM); in [3] (setting [10]), 37 µg/mL (≈ 133 µM); in experiment [3] (setting [11]), 5.6 µg/mL (≈ 20.1 µM). Also, the IC50 in [3] (setting [12]) worked out at 3.9 µg/mL (≈ 14 µM); in experiment [3] (setting [13]), 4.7 µg/mL (≈ 16.8 µM); in experiment [4] (CK1, 72 h, CK-1, Day 3), 32 µg/mL (≈ 115 µM); in experiment [4] (CK1, 120 h, CK-1, Day 5), 1.1 µg/mL (≈ 3.94 µM); in [4] (CK1, 168 h, CK-1, Day 7), 0.5 µg/mL (≈ 1.79 µM); in experiment [4] (CK1, 240 h, CK-1, Day 10) it was 1.2 µg/mL (≈ 4.3 µM). Also, the IC50 in experiment [5] (72 h, EiL8, Day 3) amounted to 39 µg/mL (≈ 140 µM); in [5] (120 h, EiL8, Day 5) it was 7.9 µg/mL (≈ 28.3 µM); in experiment [5] (168 h, EiL8, Day 7), 4.2 µg/mL (≈ 15 µM); in [5] (240 h, EiL8, Day 10), 3.5 µg/mL (≈ 12.5 µM); in [8] (setting [10]) it was 9.9 µg/mL (≈ 35.5 µM); in experiment [8] (setting [11]), 7 µg/mL (≈ 25.1 µM). The IC50 in experiment [8] (setting [12]) stood at 6.4 µg/mL (≈ 22.9 µM); in experiment [8] (setting [13]) it was 3.7 µg/mL (≈ 13.3 µM). The “inhibition of proliferation of HPV-transformed cells (in words)” value in [9] is given as “inhibit the proliferation”.
